Data as given in patent US20180133327A1, “Cell Penetrating Peptides and Complexes Comprising the Same” (Amal Therapeutics SA, priority 2015, published 2018).

Legend:
[1] = system: IFN-γ-producing OVA323-339-specific CD4 T cells; assay: Vaccination with ZEBRA CPP truncation constructs plus TLR agonist adjuvant, IFN-γ Elispot on spleen cells, CD4; type: in vivo, mice
Protocol: (§1) Mice were vaccinated three times (wk0, wk2 and wk9) by s.c. injection (right flank) of 10 nmoles of OVACD8CD4 (the cargo without Zebra CPP truncation), Z13OVACD8CD4, Z14OVACD8CD4, Z15OVACD8CD4, Z18OVACD8CD4 and i.m. injection of 50 μg of Hiltonol (right hind leg). One week after the last vaccination, Elispot assay was performed on spleen cells for detecting IFN-y-producing OVA257-264-specific CD8 T cells (A) and OVA323-339-specific CD4 T cells (B). *, p<0.05; **, p<0.01.
as §1, with “Z15OVACD8CD4 or” for “Z15OVACD8CD4,”, “20” for “i.m. injection of 50”, “Pam3CSK4.” for “Hiltonol (right hind leg).”, “IFN-γ-producing” for “IFN-y-producing”
Mice were vaccinated three times (wk0, wk2 and wk9) by s.c. injection (right flank) of 10 nmoles of Z13OVACD8CD4, Z15OVACD8CD4 or Z18OVACD8CD4 and 20 μg of MPLA. […]
(§2) Firstly, those constructs were tested with Hiltonol adjuvant (a TLR3 agonist). […] The number of peptide-specific IFN-γ-producing cells was calculated by subtracting the number of IFN-γ-secreting cells cultured without peptide to that obtained with cells cultured with peptide. […]

[2] = system: IFN-γ-producing OVA257-264-specific CD8 T cells; assay: Vaccination with ZEBRA CPP truncation constructs plus TLR agonist adjuvant, IFN-γ Elispot on spleen cells, CD8; type: in vivo, mice
Protocol: as §1
as §1, with “Z15OVACD8CD4 or” for “Z15OVACD8CD4,”, “20” for “i.m. injection of 50”, “Pam3CSK4.” for “Hiltonol (right hind leg).”, “IFN-γ-producing” for “IFN-y-producing”
Mice were vaccinated three times (wk0, wk2 and wk9) by s.c. injection (right flank) of 10 nmoles of Z13OVACD8CD4, Z15OVACD8CD4 or Z18OVACD8CD4 and 20 μg of MPLA. One week after the last vaccination, Elispot assay was performed on spleen cells for detecting IFN-γ-producing OVA257-264-specific CD8 T cells (A) and OVA323-339-specific CD4 T cells (B). *, p<0.05; **, p<0.01.
To extend the previous findings to in vivo vaccination, Z13, Z14, Z15 and Z18 conjugated to antigenic cargo containing both CD8 and CD4 T cell epitopes from OVA (as described in Example 4 for Z13, Z15 and Z18) was synthesized. For Z14 the construct was as follows:
as §2

[3] = 10 nmol ZxxOVACD8CD4 s.c. wk0, wk2, wk9 and 20 μg MPLA (TLR4 agonist)
[4] = 10 nmol ZxxOVACD8CD4 s.c. wk0, wk2, wk9 and 20 μg Pam3CSK4 (TLR2 agonist)

With “KRYKNRVASRKSRAKFKQLLQHYREVAAAKSSENDRLRLLLK [Z13]” the “CD4 immune response, combined with MPLA” value [1, 3] was “most efficacious” and the “CD8 immune response, combined with MPLA” value [2, 3] was “most efficacious”.
For “KRYKNRVASRKSRAKFK (CPP Z15) [ZEBRA CPP truncation]”, the “CD8 T cell immune responses, for any adjuvant” value ([2]; 10 nmol ZxxOVACD8CD4 s.c. wk0, wk2, wk9, Hiltonol, Pam3CSK4 or MPLA) was “low CD8 T cell immune responses”.
For REVAAAKSSENDRLRLLLK [Z18], the “CD4 immune response, combined with Pam3CSK4” value [1, 4] was “highest CD8 and CD4 immune response” and the “CD8 immune response, combined with Pam3CSK4” value [2, 4] was “highest CD8 and CD4 immune response”.
